Measurements reported in patent US20200215158A1, “Multifunctional, Self-Assembled Aptamer-Nanomedicine Compositions and Methods for treating Cancer” (The Methodist Hospital, priority 2018, published 2020).

Legend:
[1] = tested on: Karpas 299 xenograft tumor; assay: Anticancer efficacy of Apt-NMed in vivo; parameters: species or system mouse; conditions: post first dose treatment
Description: Mice NOD.Cg-Prkdc^scid Il2rg^tmlWjl/SzJ (NOD SCID), 4-6-weeks old, were used to develop xenograft tumor models by subcutaneously injecting 6×10^6 cultured CD30-expressing lymphoma cells (Karpas 299) (in 100 μL of PBS buffer) into mice on the back. Dorsal tumor nodules were allowed to grow to a volume of ˜4 mm^3 before treatment initiation. Tumor-bearing mice were randomly assigned to three groups (with six mice in each group) as follows: (i) group administered with 0.25 mg Apt-NMed carrying […] to each mouse; (ii) group administered 20 μg free DOX to each mouse, and (iii) untreated group. Drugs were injected through tail veins every other day, and the treatment was continued for four weeks. Tumor length and width were measured with calipers weekly for each mouse. Tumor volume was calculated using the following equation:
Tumor Volume=Length×Width^2×0.52
(§1) The body weight of each mouse was also measured weekly to monitor potential drug toxicity. Mice were euthanized when tumor volume exceeded 2,000 mm^3.

[2] = Body weight of tumor-bearing mice during treatment; format: in vivo, mouse
Description: as §1

## COc1cccc2c1C(=O)c1c(O)c3c(c(O)c1C2=O)C[C@@](O)(C(=O)CO)C[C@@H]3O[C@H]1C[C@H](N)[C@H](O)[C@H](C)O1 [free DOX, doxorubicin]
[1]
  day at which the last mouse died: 38 days
[2]; day 35, 20 μg/mouse
  body weight loss: 20%
[2]; during treatment
  change in mice body weight: considerable decrease
